In PMC10605449 (Biosensors, 2023):
Changes are numbered by the printed parent chain.

Assays:
Assay type in all cases: binding
[1] = biological target: T1, MARK3(48-370) Mutant 5 (Homo sapiens, UniProt P27448, A68G/E139D/F199L/F67Y/G137R/I62L/L128I/L130I/N66T/T204H/V116I/V205Q); assay: SPR Extract2Chip, cellular biotinylated MARK3 Mutant 5, GSK461364A injected; conditions: 15 °C
T1 construct: made in house; host or cells: E. coli Rosetta 2, co-expressed with BirA; soluble lysate used without purification
T1 sequence (P27448 48-370 I62L/N66T/F67Y/A68G/V116I/L128I/L130I/G137R/E139D/F199L/T204H/V205Q): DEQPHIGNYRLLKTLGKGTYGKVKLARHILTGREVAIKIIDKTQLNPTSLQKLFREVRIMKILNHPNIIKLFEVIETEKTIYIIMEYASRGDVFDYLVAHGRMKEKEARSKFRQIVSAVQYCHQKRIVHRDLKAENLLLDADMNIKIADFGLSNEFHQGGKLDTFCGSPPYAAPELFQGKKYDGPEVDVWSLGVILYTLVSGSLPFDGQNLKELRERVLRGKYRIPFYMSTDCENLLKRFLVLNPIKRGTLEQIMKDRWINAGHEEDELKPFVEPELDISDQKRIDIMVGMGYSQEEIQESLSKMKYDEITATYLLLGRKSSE
Method: (§1) The cellular biotinylation of MARK3(48-370) kinase domain mutants followed the same approach as described for CypD. The 6 different mutants were expressed in Rosetta^TM 2 in PB media, and induced with 100 µM IPTG overnight at 18 °C.
(§2) The cellular biotinylated MARK3 NUAK2-like mutants were immobilized using the approach described in Section 2.5.2. The soluble cell lysates were diluted to a final concentration of 200 µg/mL, then injected over the neutravidin surfaces for 200 or 1400 s in order to reach 1000 to 2300 RU.
(§3) The interaction analysis cycles consisted of 140 s of sample injection followed by 350 to 600 s of running buffer flow. The running buffer was composed of 20 mM HEPES pH 7.4, 100 mM NaCl, 5 mM MgCl2, 1 mM EGTA, 1 mM DTT, 0.05% Tween-20, and 2% DMSO, and the experiment was performed at 15 °C.
(§4) All sensorgrams were processed by first subtracting the binding response recorded from the control surface (reference spot, where only the avidin protein is immobilized), followed by subtraction of the buffer blank injection from the reaction spot. All datasets were fitted to a simple 1:1 Langmuir interaction model to determine the kinetic rate constants, and the interaction affinity was additionally calculated at a steady state when applicable. […]

[2] = biological target: T2, MARK3(48-370) Mutant 6 (Homo sapiens, UniProt P27448, A68G/E139D/F199L/F67Y/G137R/I62L/L128I/L130I/L72K/N66T/T204H/V116I/V205Q); assay: SPR Extract2Chip, cellular biotinylated MARK3 Mutant 6, GSK461364A injected; conditions: 15 °C
T2 construct: made in house; host or cells: E. coli Rosetta 2, co-expressed with BirA; soluble lysate used without purification
T2 sequence (P27448 48-370 I62L/N66T/F67Y/A68G/L72K/V116I/L128I/L130I/G137R/E139D/F199L/T204H/V205Q): T1 sequence (P27448 48-370 I62L/N66T/F67Y/A68G/V116I/L128I/L130I/G137R/E139D/F199L/T204H/V205Q) with L25K
Method: as §1, §2, §3, §4

[3] = biological target: T3, MARK3(48-370) (Homo sapiens, UniProt P27448); assay: SPR, pure MARK3(48-370) WT immobilized by amine coupling, GSK461364A injected
T3 construct: The purified His6-TEV-MARK3(48-370) was immobilized using the same approach as GST-NUAK2(1-628); HRV3C site (C, cleaved yes); AviTag (C, cleaved yes); made in house
T3 sequence (P27448 48-370): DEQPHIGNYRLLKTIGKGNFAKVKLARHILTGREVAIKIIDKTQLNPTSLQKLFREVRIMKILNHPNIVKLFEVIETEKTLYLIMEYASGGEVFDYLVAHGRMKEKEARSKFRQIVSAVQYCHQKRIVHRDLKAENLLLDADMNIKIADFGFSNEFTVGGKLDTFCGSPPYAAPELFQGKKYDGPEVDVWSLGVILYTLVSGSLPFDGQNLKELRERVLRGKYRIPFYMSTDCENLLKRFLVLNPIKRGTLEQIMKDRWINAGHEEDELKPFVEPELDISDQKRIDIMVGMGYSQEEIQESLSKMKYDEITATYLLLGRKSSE
Method: as §3
(§5) All sensorgrams were processed by first subtracting the binding response recorded from the control surface (reference spot, where only the avidin protein is immobilized), followed by subtraction of the buffer blank injection from the reaction spot. All datasets were fitted to a simple 1:1 Langmuir interaction model to determine the kinetic rate constants, and the interaction affinity was additionally calculated at a steady state when applicable. In cases where small molecules were present during the assay, a DMSO solvent correction (1–3%) was applied to account for variations in bulk signal and to achieve high-quality data. The experiments with immobilized purified proteins were performed on a Biacore 4000 (Cytiva, Uppsala, Sweden), and the interaction was evaluated using the provided Biacore 4000 evaluation software, while the experiments with soluble cell lysates on a Biacore T200 (Cytiva, Uppsala, Sweden) used the provided Biacore T200 evaluation software. All SPR experiments were performed in duplicate.

[4] = biological target: T4, NUAK2(1-628) (Homo sapiens, UniProt Q9H093); assay: SPR, pure GST-NUAK2(1-628) immobilized by amine coupling, GSK461364A injected; conditions: pure NUAK2(1-628); 15 °C
T4 construct: GST-NUAK2(1-628) was purchased from Carna Biosciences, Inc (Kobe, Japan); purchased Carna Biosciences, Inc (Kobe, Japan)
T4 sequence (Q9H093 1-628): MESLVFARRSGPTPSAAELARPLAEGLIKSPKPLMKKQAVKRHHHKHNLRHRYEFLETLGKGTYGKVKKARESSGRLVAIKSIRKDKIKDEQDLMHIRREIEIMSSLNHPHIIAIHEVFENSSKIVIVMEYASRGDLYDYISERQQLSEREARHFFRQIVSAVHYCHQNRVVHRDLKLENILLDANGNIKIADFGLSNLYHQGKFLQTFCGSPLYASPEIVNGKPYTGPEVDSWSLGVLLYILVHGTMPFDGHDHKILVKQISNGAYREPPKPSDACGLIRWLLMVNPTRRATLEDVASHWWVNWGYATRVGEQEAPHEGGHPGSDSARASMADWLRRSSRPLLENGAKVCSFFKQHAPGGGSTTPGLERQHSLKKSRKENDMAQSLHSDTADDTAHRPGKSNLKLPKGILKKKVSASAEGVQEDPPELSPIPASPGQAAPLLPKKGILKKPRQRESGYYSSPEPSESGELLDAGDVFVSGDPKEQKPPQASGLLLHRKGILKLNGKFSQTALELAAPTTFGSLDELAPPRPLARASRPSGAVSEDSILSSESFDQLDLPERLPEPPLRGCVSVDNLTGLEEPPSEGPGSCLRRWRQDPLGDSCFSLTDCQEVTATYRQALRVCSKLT
Method: as §3, §5

With C[C@@H](Oc1cc(-n2cnc3ccc(CN4CCN(C)CC4)cc32)sc1C(N)=O)c1ccccc1C(F)(F)F [GSK461364A] the “kd ± SD” value [1] was 0.035 ± 0.012 s⁻¹, the “kd ± SD” value [2] was 0.021 ± 0.0012 s⁻¹ and the “Binding behavior” value [3] was “transient binding behavior”. For the same compound, the “kd ± SD” value [4] was 0.031 ± 0.017 s⁻¹.
